In ChEMBL document CHEMBL3507680, “University of Dundee, Gates Library screen for HepG2 cell viability” one finds cytotoxicity data, which are given here for 99 compounds.

The structures appear in SMILES notation.

The data set can be described thus: Human HepG2 cell viability assay in 384 well format. The format is toxicity, cell-based. Details: dose 125 nL, time 70.5 hour; cytotoxicity at 70.5 h: concentration not given beside the values. Conditions: HepG2 cells, read-out: Inhibition.
With `Cc1nc(CN2CCCN(CCOc3ccc(C#N)cc3)CC2)no1`, the cytotoxicity at 70.5 h was -0.262%.

On to `Cc1cnc2c(S(=O)(=O)N(C)C3CCS(=O)(=O)C3)cccc2c1` (centres undefined), for which the cytotoxicity at 70.5 h was -16.4%.

Regarding `NC(=O)c1c(-c2ccc(Cl)cc2Cl)csc1NC(=O)CCC(=O)O`, the cytotoxicity at 70.5 h was 20.5%.

As to `CN1CCN(C(=O)N2CC[C@@](O)(c3ccccc3)[C@H]3CCCC[C@@H]32)CC1`, the cytotoxicity at 70.5 h is -5.89%.

With `Cc1noc(C)c1CN(C)CCc1nc(-c2cccc(Cl)c2)no1`, the cytotoxicity at 70.5 h is -10.4%.

As to `COc1ccsc1C(=O)Nc1cc(CN2CCOCC2)ccc1C`, the cytotoxicity at 70.5 h is 0.784%.

For the compound `O=C(N1CCCC1)N1CCc2ncnc(C3CCOC3)c2CC1` (centres undefined), the cytotoxicity at 70.5 h was -9.08%.

As to `COCCSCC(=O)NCc1ccc(N(C)C)cc1`, the cytotoxicity at 70.5 h is -0.963%.

Turning to `Nc1cc(CCC2CN(Cc3ccc4cc[nH]c4c3)CCO2)ccn1` (centres undefined), the cytotoxicity at 70.5 h was 20.8%.

On to `CC(C)c1nn(C)cc1CNC1CCOc2ccccc21` (centres undefined), for which the cytotoxicity at 70.5 h is -7.85%.

Take `Cc1nc(CN2CCN(C(=O)CCc3nc(C(C)(C)C)no3)CC2)cs1`: the cytotoxicity at 70.5 h was 5.21%.

With `c1cc(COC[C@@H]2CCC[C@@]23CNCCO3)ccn1`, the cytotoxicity at 70.5 h was found to be 8.32%.

For the compound `c1cncc(-c2nnc([C@H]3CCN(CC4CCCCC4)C3)o2)c1`, the cytotoxicity at 70.5 h was -6.55%.

Take `O=C(Cn1ccc2sccc2c1=O)NCc1ccccc1F`: the cytotoxicity at 70.5 h was -5.13%.

On to `COc1cccc(CN(C)Cc2cccc(C#N)c2)c1OC`, for which the cytotoxicity at 70.5 h is -3.83%.

On to `CCn1ccnc1CN1CCN(C(C)C(=O)N2CCC(C)CC2)CC1` (centres undefined), for which the cytotoxicity at 70.5 h turned out to be 3.72%.

As for `O=C(c1ccoc1)N1CCCCC1c1nc[nH]n1` (centres undefined), the cytotoxicity at 70.5 h was -1.78%.

For the compound `COc1nc(C)c(C(=O)NCc2cc(N3CCOCC3)ncn2)s1`, the cytotoxicity at 70.5 h was -2.68%.

Regarding `O=C(O)c1ccnc2c(Br)cccc12`, the cytotoxicity at 70.5 h was -3.81%.

In the case of `Cc1cc2cccc(C(=O)N3CC[C@@H](N)[C@H](O)C3)c2o1`, the cytotoxicity at 70.5 h was -9.95%.

For the compound `COc1cccc(CNc2c(O)c(=O)c2=O)c1`, the cytotoxicity at 70.5 h was -20.2%.

As to `CCn1ncnc1C(C)NC(=O)C1CCN(C(C)C)CC1` (centres undefined), the cytotoxicity at 70.5 h is -8.56%.

Regarding `COCc1nn(Cc2ccc(Cl)s2)c(=O)o1`, the cytotoxicity at 70.5 h was -13.7%.

Turning to `Cc1c(NC(=O)c2cnc[nH]2)cccc1C(=O)NC(C)(C)C`, the cytotoxicity at 70.5 h was -5.11%.

As to `COc1ccc2c(=O)n(CC3CCCN(C)C3)ccc2c1OC` (centres undefined), the cytotoxicity at 70.5 h worked out at 10.5%.

As to `COC(=O)CN(C)C1CCc2ccccc21` (centres undefined), the cytotoxicity at 70.5 h was -4.82%.

For `COc1ncccc1CNC(=O)c1cnccn1`, the cytotoxicity at 70.5 h was -12.4%.

On to `Cc1noc(C)c1S(=O)(=O)N1CCC(Oc2cnccn2)CC1`, for which the cytotoxicity at 70.5 h was 11.2%.

Regarding `COCc1nc(CNc2cccc(-c3ncon3)c2)cs1`, the cytotoxicity at 70.5 h came to 29.2%.

Turning to `O=C(NC1CCCC1)N1C[C@H]2CN(c3ccccn3)C[C@@]2(C(=O)O)C1`, the cytotoxicity at 70.5 h is 6.72%.

On to `Cc1cccc(C(C(=O)NCc2cc(C)[nH]n2)N(C)C)c1` (centres undefined), for which the cytotoxicity at 70.5 h was 7.18%.

In the case of `CN(C)S(=O)(=O)N1CC(c2ccnc(Nc3ccccn3)n2)C1`, the cytotoxicity at 70.5 h is -5.03%.

Turning to `CCN(CC)C(=O)Cn1nc(C(C)C)c2cnn(C(C)(C)C)c2c1=O`, the cytotoxicity at 70.5 h was 13.7%.

Turning to `CN(CC(F)F)C(=O)c1cn(-c2ccc(Br)cc2)cn1`, the cytotoxicity at 70.5 h was 3.66%.

As for `CN(C)C(=O)CC1CC2(CCNCC2)c2cc(F)ccc21` (centres undefined), the cytotoxicity at 70.5 h was -8.47%.

Turning to `CCc1nc(C2CCCN(C(=O)c3cccc4c3ccn4C)C2)no1` (centres undefined), the cytotoxicity at 70.5 h was -4.32%.

With `CCn1c(C2CCN(C(=O)CCc3cc(Cl)no3)CC2)nn(C)c1=O`, the cytotoxicity at 70.5 h is -6.98%.

Consider `COCC1CC2(CCN(c3cc(OC)ncn3)CC2)CN1C(C)C` (centres undefined), for which the cytotoxicity at 70.5 h was -8.64%.

Consider `Cc1cc(CN2CC[C@H]3C[C@@H](C)O[C@@H]3C2)no1`, for which the cytotoxicity at 70.5 h was -7.88%.

As for `O=C(CCc1ccco1)NCC1CCCN1c1cccnn1` (centres undefined), the cytotoxicity at 70.5 h was -2.58%.

Take `COCCC(Cc1cccc(Br)c1)C(N)=O` (centres undefined): the cytotoxicity at 70.5 h was -7.63%.

In the case of `Cc1nc2c(c(NCc3ccccc3)n1)CCN(C(=O)C1CCC1)CC2`, the cytotoxicity at 70.5 h was -6.11%.

On to `O=C(c1ccc2c(c1)CCC2)N1CCC(c2n[nH]c(C3CC3)n2)CC1`, for which the cytotoxicity at 70.5 h is -7.78%.

Take `CNC(=O)[C@@H]1C[C@@H](N)CN1Cc1cc2cc(C)cc(C)c2[nH]c1=O`: the cytotoxicity at 70.5 h is -12%.

For the compound `O=C(c1ccc2c(c1)CCO2)N1CCN(c2ccc(Cl)cn2)CC1`, the cytotoxicity at 70.5 h was -0.811%.

In the case of `CS(=O)(=O)NCCNC(=O)c1cnc(-c2ccccc2)nc1`, the cytotoxicity at 70.5 h is -4.82%.

`COCCN(Cc1ccc(F)cc1Cl)C(=O)c1cc(C)n[nH]1`: the cytotoxicity at 70.5 h was -0.839%.

Regarding `COc1ccccc1C1SCC(=O)Nc2n[nH]cc21` (centres undefined), the cytotoxicity at 70.5 h was determined as 3.24%.

`CNC(=O)CN(C)CC1(c2ccc(Br)cc2)CC1`: the cytotoxicity at 70.5 h came out at 0.137%.

With `Cc1csc2c(N3CCC(NCCCc4cnn(C)c4)CC3)ncnc12`, the cytotoxicity at 70.5 h turned out to be 2.87%.

In the case of `Cc1ccc(S(=O)(=O)N(CC2CCOC2)C2CC2)cc1N(C)C` (centres undefined), the cytotoxicity at 70.5 h is 0.338%.

As for `CN(C)C(=O)c1c[nH]nc1-c1ccc(CNC(=O)c2cnccn2)cc1`, the cytotoxicity at 70.5 h was -1.73%.

As to `NCc1n[nH]c(=O)n1-c1cccc(Cl)c1Cl`, the cytotoxicity at 70.5 h is -3.71%.

On to `CS(=O)(=O)N1CCCC12CCCN(C(=O)c1cc(F)cc(F)c1)C2` (centres undefined), for which the cytotoxicity at 70.5 h was -11.7%.

On to `CC(Cc1ccc2c(c1)OCO2)c1cn(CCN2CCCC2)nn1` (centres undefined), for which the cytotoxicity at 70.5 h was -12%.

In the case of `CC(C)(CC(=O)N(CC(N)=O)C1CCCC1)c1ccccc1`, the cytotoxicity at 70.5 h is -9.09%.

For the compound `CN(Cc1ccc2c(c1)OCO2)C(=O)c1ccc(C2CCCNC2)cc1` (centres undefined), the cytotoxicity at 70.5 h is -6.12%.

Take `O=C1CO[C@@H]2CN(S(=O)(=O)c3ccc(F)cc3)C[C@H]2N1`: the cytotoxicity at 70.5 h came to 15.2%.

For `Cc1ccc2c(c1)C(=O)NCC1(CCN(Cc3ccccc3)CC1)O2`, the cytotoxicity at 70.5 h is -6.17%.

Consider `Cc1noc(C)c1CN1CCO[C@H]2CNC[C@H]21`, for which the cytotoxicity at 70.5 h was -6.78%.

In the case of `CCS(=O)(=O)N1CCc2c(nc(C3CCCN3)nc2NC)C1` (centres undefined), the cytotoxicity at 70.5 h came out at 18.6%.

On to `Cc1nn(C)c(Cl)c1C1CCCN1CC(=O)NCc1ccccn1` (centres undefined), for which the cytotoxicity at 70.5 h was -7.66%.

On to `CC(=O)NCCC1CCCCN1C(=O)c1cccc(CCC(C)(C)O)c1` (centres undefined), for which the cytotoxicity at 70.5 h was -6.03%.

`CCC(CNC(=O)c1nc(=O)[nH][nH]1)Oc1cccc(C(F)(F)F)c1` (centres undefined): the cytotoxicity at 70.5 h is -3.8%.

Regarding `CCN(CC)C(=O)[C@@H]1C[C@@H](NC(=O)c2cccn2C2CC2)CN1C`, the cytotoxicity at 70.5 h is -7.5%.

Turning to `Nc1cc(N2CCCC(CO)(Cc3ccccc3F)C2)nc(N)n1` (centres undefined), the cytotoxicity at 70.5 h was 28.8%.

Regarding `CC(C)(C)c1n[nH]cc1CNC1CCC(OCC(F)(F)F)CC1` (centres undefined), the cytotoxicity at 70.5 h is -11.2%.

For `Cc1noc(C)c1CN1CC[C@H]2OCC[C@@H](C(=O)NCC3CC3)[C@H]2C1`, the cytotoxicity at 70.5 h is -8.02%.

In the case of `O=C(c1cccnc1N1CCOCC1)N1CCCC1Cn1cccn1` (centres undefined), the cytotoxicity at 70.5 h was -8.41%.

With `CNc1ncccc1CN1CCN(C)CC(C(=O)N(C)C)C1` (centres undefined), the cytotoxicity at 70.5 h amounted to 14.6%.

As for `Cn1nccc1C(=O)N1Cc2cc(Cl)ccc2OC2(CCOCC2)C1`, the cytotoxicity at 70.5 h was 2.41%.

For `CCS(=O)(=O)CCN(C)C(=O)NC(C)c1ccc(C)s1` (centres undefined), the cytotoxicity at 70.5 h was -5.27%.

For the compound `Cc1nnc(CN2CCCC(c3cc(C(N)=O)[nH]n3)C2)o1` (centres undefined), the cytotoxicity at 70.5 h is -15.2%.

Take `Cc1ccc(N2CCC(c3cc(Cc4ccccc4)n[nH]3)CC2)nn1`: the cytotoxicity at 70.5 h is -9.6%.

In the case of `CCOCC(=O)Nc1cc(-n2nnnc2C2CC2)ccc1F`, the cytotoxicity at 70.5 h came to 0.6%.

For the compound `CCOc1ccc(CN2C(=O)CC(CC)(CC)C2=O)nc1`, the cytotoxicity at 70.5 h was found to be 0.923%.

On to `Cc1n[nH]c(C)c1NC(=O)CN1CCCC(CNC(=O)C(C)(C)C)C1` (centres undefined), for which the cytotoxicity at 70.5 h came out at 2.09%.

`c1csc(CN2CCn3c(Cn4cncn4)cnc3C2)n1`: the cytotoxicity at 70.5 h is -17.2%.

As for `COc1cccc(C2(C(=O)NC3CCc4nccn4C3)CCCC2)c1` (centres undefined), the cytotoxicity at 70.5 h was 10.9%.

For the compound `O=C(C(CNCc1ccsc1)c1ccccc1)N1CCOCC1` (centres undefined), the cytotoxicity at 70.5 h was -2.8%.

`CCn1c(C)cc(C(=O)N2C[C@@H](C(=O)O)[C@H](c3ccccc3C)C2)c1C`: the cytotoxicity at 70.5 h is -8.47%.

As for `CSc1[nH]nc(NC(=O)c2cccnc2)c1C#N`, the cytotoxicity at 70.5 h was -5.13%.

Consider `CC(C)OCCN1CCN(C(C)c2nc(C3CC3)no2)CC1` (centres undefined), for which the cytotoxicity at 70.5 h amounted to 17.9%.

On to `Cc1ccc(Oc2ncccc2CNC2CCCCC2)cn1`, for which the cytotoxicity at 70.5 h was -5.62%.

Regarding `Cc1cc(C(=O)N2C[C@@H]3[C@@H](CN(C)CCc4ccccn4)[C@@H]3C2)c(C)o1`, the cytotoxicity at 70.5 h stood at 25.1%.

`O=C1CCC2(CCN(Cc3cc(F)cc(F)c3)CC2)CN1CCO`: the cytotoxicity at 70.5 h was -1.2%.

As to `Cc1ccc(NC2COC3(CCN(CC(C)C)CC3)C2)nn1` (centres undefined), the cytotoxicity at 70.5 h was found to be 27.8%.

Consider `CC(CNC(=O)c1cc(Cl)ccc1I)N1CCCC1` (centres undefined), for which the cytotoxicity at 70.5 h was -17.1%.

With `CC(C)(C)c1cn(C2CCN(C(=O)c3cncnc3)CC2)nn1`, the cytotoxicity at 70.5 h was found to be 18%.

In the case of `CCN(Cc1cccc2c1OCO2)CC1CCCO1` (centres undefined), the cytotoxicity at 70.5 h was -6.33%.

`Cc1nn(S(=O)(=O)c2ccc(Cl)cc2)c(C)c1C`: the cytotoxicity at 70.5 h is 38.4%.

Consider `Cc1noc(C)c1S(=O)(=O)NCC(C)(O)c1ccc2c(c1)OCO2` (centres undefined), for which the cytotoxicity at 70.5 h was -3.11%.

In the case of `c1ccn2c(C3CCCN(c4ncnc5c4CCNC5)C3)nnc2c1` (centres undefined), the cytotoxicity at 70.5 h stood at 8.25%.

For the compound `CN(C(=O)c1ccncc1)c1nnc(C2CCOC2)s1` (centres undefined), the cytotoxicity at 70.5 h is -5.28%.

As for `Cc1c[nH]c(CN2CCOC(c3ccc(Cl)c(Cl)c3)C2)c(C)c1=O` (centres undefined), the cytotoxicity at 70.5 h was 5.88%.

`CC(CNc1nccc(C(C)C)n1)Oc1cccnc1` (centres undefined): the cytotoxicity at 70.5 h was -6.89%.

Consider `Cc1cccc(NC(=O)c2sccc2C)n1`, for which the cytotoxicity at 70.5 h came to 36.7%.

With `Oc1ccc(CCC2CCCCN2Cc2noc(C3CC3)n2)cc1` (centres undefined), the cytotoxicity at 70.5 h was determined as 15.5%.

As for `Cc1cc(C)n(-c2ccc(C(C)NS(N)(=O)=O)cc2)n1` (centres undefined), the cytotoxicity at 70.5 h is -11.9%.
